Structures are written as SMILES. Where only a bound is given, the exact number is not on record here.

The term IC50 denotes the concentration that gives 50% inhibition.

Chain of human integrin αvβ6 (P06756 31-992): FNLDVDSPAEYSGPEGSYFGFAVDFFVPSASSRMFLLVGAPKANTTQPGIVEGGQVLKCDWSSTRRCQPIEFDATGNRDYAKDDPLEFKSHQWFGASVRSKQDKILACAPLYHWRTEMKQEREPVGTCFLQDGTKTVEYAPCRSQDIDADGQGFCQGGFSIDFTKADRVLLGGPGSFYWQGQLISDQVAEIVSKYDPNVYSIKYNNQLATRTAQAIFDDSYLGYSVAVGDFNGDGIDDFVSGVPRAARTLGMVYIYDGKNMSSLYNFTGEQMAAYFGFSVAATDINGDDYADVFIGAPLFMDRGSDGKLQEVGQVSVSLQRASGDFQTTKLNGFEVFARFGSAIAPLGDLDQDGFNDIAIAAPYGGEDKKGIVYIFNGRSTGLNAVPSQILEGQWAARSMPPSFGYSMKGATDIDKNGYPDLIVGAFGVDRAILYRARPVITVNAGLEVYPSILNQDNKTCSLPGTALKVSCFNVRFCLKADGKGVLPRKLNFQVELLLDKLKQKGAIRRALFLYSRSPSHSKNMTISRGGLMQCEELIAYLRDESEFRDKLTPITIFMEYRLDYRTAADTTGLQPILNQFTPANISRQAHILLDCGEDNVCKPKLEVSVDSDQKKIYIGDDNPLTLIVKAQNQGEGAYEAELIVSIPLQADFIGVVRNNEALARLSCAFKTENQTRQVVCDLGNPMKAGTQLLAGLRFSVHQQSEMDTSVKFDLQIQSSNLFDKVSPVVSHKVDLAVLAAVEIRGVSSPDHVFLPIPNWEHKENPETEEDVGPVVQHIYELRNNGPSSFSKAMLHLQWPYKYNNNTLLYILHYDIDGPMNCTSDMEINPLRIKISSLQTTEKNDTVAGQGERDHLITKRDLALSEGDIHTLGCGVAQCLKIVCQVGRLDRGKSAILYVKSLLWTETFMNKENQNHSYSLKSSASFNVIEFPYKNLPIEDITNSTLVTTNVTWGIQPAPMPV
Chain of human integrin αvβ6 (P18564 22-707): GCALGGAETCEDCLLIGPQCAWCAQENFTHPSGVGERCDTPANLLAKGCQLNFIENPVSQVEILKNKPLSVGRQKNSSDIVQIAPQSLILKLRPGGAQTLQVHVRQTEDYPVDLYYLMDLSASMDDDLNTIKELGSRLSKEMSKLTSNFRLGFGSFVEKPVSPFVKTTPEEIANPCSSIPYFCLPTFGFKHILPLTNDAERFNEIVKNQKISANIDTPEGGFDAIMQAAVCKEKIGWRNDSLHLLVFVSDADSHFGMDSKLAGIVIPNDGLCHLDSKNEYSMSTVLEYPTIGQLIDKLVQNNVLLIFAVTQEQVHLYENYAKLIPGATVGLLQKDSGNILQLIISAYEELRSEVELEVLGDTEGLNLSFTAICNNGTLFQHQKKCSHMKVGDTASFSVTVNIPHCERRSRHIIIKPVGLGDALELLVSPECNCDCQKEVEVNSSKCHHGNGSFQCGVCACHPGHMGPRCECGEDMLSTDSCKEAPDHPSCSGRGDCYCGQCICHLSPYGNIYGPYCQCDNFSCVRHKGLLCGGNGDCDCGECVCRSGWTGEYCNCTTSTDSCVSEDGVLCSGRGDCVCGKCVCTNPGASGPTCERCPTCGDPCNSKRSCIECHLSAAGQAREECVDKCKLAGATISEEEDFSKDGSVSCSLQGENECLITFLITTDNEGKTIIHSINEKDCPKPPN

One test addresses human integrin αvβ6 (Homo sapiens (Human), UniProt P06756+P18564). The test is described as follows: Proximity-based integrin receptor binding assay (ALPHASCREEN) for inhibitor potency. The following applies: inhibition of binding of TGF-b1 LAP to human integrin αvβ6; values given in ranges. As for the experimental part: To gauge the potency of inhibitors of binding to human integrin αvβ6, inhibitor compounds and integrin were incubated together with TGF-b1 LAP and biotinylated anti-LAP antibody plus acceptor and donor beads, following the manufacture's recommendations. The donor beads were coated with streptavidin. […] All incubations occurred at room temperatures in 50 mM Tris-HCl, pH 7.5, 0.1% BSA supplemented with 1 mM each CaCl2 and MgCl2.
The order of reagent addition was as follows:
1. Alpha-v-beta-6 integrin, test inhibitor compound, LAP, biotinylated anti-LAP antibody and acceptor beads were all added together.
2. After 2 hours, donor beads were added. After another 30 minute incubation, samples were then read.
Integrin binding was evaluated by exciting donor beads at 680 nm, and measuring the fluorescent signal produced, between 520-620 nm, using a Biotek Instruments (Winooski, Vt., USA) SynergyNeo2 multimode plate reader. […] Data analysis for IC50 determinations was carried out by nonlinear four parameter logistic regression analysis using Dotmatics ELN Software (Core Informatics Inc., Branford, Conn.).
(In Alpha technology, singlet oxygen from a donor bead excites a nearby acceptor bead.)
Consider `Cn1ncc2c(C(=O)N[C@@H](CCO[C@H]3C[C@H](CCc4ccc5c(n4)NCCC5)C3)C(=O)O)cccc21` [Compound 38, N-(1-methyl-1H-indazole-4-carbonyl)-O-(trans-3-(2-(5,6,7,8-tetrahydro-1,8-naphthyridin-2-yl)ethyl)cyclobutyl)homoserine], for which the concentration for half-maximal inhibition (IC50) lay in the range of 50 to 250 nM.

With `Cn1cc2ccc(C(=O)N[C@@H](CCO[C@H]3C[C@H](CCc4ccc5c(n4)NCCC5)C3)C(=O)O)cc2n1` [Compound 39, N-(2-methyl-2H-indazole-6-carbonyl)-O-(trans-3-(2-(5,6,7,8-tetrahydro-1,8-naphthyridin-2-yl)ethyl)cyclobutyl)homoserine], the IC50 was in the range of 50 to 250 nM.

On to `Cn1cc2cc(C(=O)N[C@@H](CCO[C@H]3C[C@H](CCc4ccc5c(n4)NCCC5)C3)C(=O)O)ccc2n1` [Compound 40, N-(2-methyl-2H-indazole-5-carbonyl)-O-(trans-3-(2-(5,6,7,8-tetrahydro-1,8-naphthyridin-2-yl)ethyl)cyclobutyl)homoserine], for which the IC50 lay in the range of 50 to 250 nM.

With `Cn1ccc2c(C(=O)N[C@@H](CCO[C@H]3C[C@H](CCc4ccc5c(n4)NCCC5)C3)C(=O)O)ccnc21` [Compound 41, N-(1-methyl-1H-pyrrolo[2,3-b]pyridine-4-carbonyl)-O-(trans-3-(2-(5,6,7,8-tetrahydro-1,8-naphthyridin-2-yl)ethyl)cyclobutyl)homoserine], the IC50 is less than 50 nM.

As to `O=C(O)C(CCO[C@H]1C[C@H](CCc2ccc3c(n2)NCCC3)C1)NC(=O)[C@@H](CO)c1ccccc1` (stereo partly drawn) [Compound 42, N—((R)-3-hydroxy-2-phenylpropanoyl)-O-(trans-3-(2-(5,6,7,8-tetrahydro-1,8-naphthyridin-2-yl)ethyl)cyclobutyl)homoserine], the IC50 lay within 50 to 250 nM.

On to `O=C(O)C(CCO[C@H]1C[C@H](CCc2ccc3c(n2)NCCC3)C1)NC(=O)[C@@H](CO)c1ccccc1` (stereo partly drawn) [Compound 43, N—((R)-3-hydroxy-2-phenylpropanoyl)-O-(trans-3-(2-(5,6,7,8-tetrahydro-1,8-naphthyridin-2-yl)ethyl)cyclobutyl)homoserine], for which the IC50 fell in the range of 250 to 1000 nM.

For `CCC(CC)C(=O)N[C@@H](CCO[C@H]1C[C@H](CCc2ccc3c(n2)NCCC3)C1)C(=O)O` [Compound 44, N-(2-ethylbutanoyl)-O-(trans-3-(2-(5,6,7,8-tetrahydro-1,8-naphthyridin-2-yl)ethyl)cyclobutyl)homoserine], the IC50 lay within 50 to 250 nM.

As for `CCC(CC)CC(=O)NC(CCO[C@H]1C[C@H](CCc2ccc3c(n2)NCCC3)C1)C(=O)O` (stereo partly drawn) [Compound 45, N-(3-ethylpentanoyl)-O-(trans-3-(2-(5,6,7,8-tetrahydro-1,8-naphthyridin-2-yl)ethyl)cyclobutyl)homoserine], the IC50 is 50 to 250 nM.

For the molecule `O=C(O)C(CCO[C@H]1C[C@H](CCc2ccc3c(n2)NCCC3)C1)NC(=O)[C@H](CO)c1ccccc1` (stereo partly drawn) [Compound 46, N—((S)-3-hydroxy-2-phenylpropanoyl)-O-(trans-3-(2-(5,6,7,8-tetrahydro-1,8-naphthyridin-2-yl)ethyl)cyclobutyl)homoserine], the IC50 fell in the range of 250 to 1000 nM.

Regarding `O=C(O)C(CCO[C@H]1C[C@H](CCc2ccc3c(n2)NCCC3)C1)NC(=O)[C@H](CO)c1ccccc1` (stereo partly drawn) [Compound 47, N—((S)-3-hydroxy-2-phenylpropanoyl)-O-(trans-3-(2-(5,6,7,8-tetrahydro-1,8-naphthyridin-2-yl)ethyl)cyclobutyl)homoserine], the IC50 was 250 to 1000 nM.

For `Cn1ccc2cc(C(=O)N[C@@H](CCO[C@H]3C[C@H](CCc4ccc5c(n4)NCCC5)C3)C(=O)O)cnc21` [Compound 48, N-(1-methyl-1H-pyrrolo[2,3-b]pyridine-5-carbonyl)-O-(trans-3-(2-(5,6,7,8-tetrahydro-1,8-naphthyridin-2-yl)ethyl)cyclobutyl)homoserine], the IC50 was 250 to 1000 nM.

As to `O=C(NC(CCO[C@H]1C[C@H](CCc2ccc3c(n2)NCCC3)C1)C(=O)O)c1cccc(-c2cncs2)c1` (stereo partly drawn) [Compound 49, O-(trans-3-(2-(5,6,7,8-tetrahydro-1,8-naphthyridin-2-yl)ethyl)cyclobutyl)-N-(3-(thiazol-5-yl)benzoyl)homoserine], the IC50 lay in the range of 50 to 250 nM.

For `O=C(N[C@@H](CCO[C@H]1C[C@H](CCc2ccc3c(n2)NCCC3)C1)C(=O)O)c1cccc(CO)c1` [Compound 50, N-(3-(hydroxymethyl)benzoyl)-O-(trans-3-(2-(5,6,7,8-tetrahydro-1,8-naphthyridin-2-yl)ethyl)cyclobutyl)homoserine], the IC50 was less than 50 nM.

As to `O=C(N[C@@H](CCO[C@H]1C[C@H](CCc2ccc3c(n2)NCCC3)C1)C(=O)O)c1cccc2ncccc12` [Compound 51, N-(quinoline-5-carbonyl)-O-(trans-3-(2-(5,6,7,8-tetrahydro-1,8-naphthyridin-2-yl)ethyl)cyclobutyl)homoserine], the IC50 is less than 50 nM.

For `O=C(N[C@@H](CCO[C@H]1C[C@H](CCc2ccc3c(n2)NCCC3)C1)C(=O)O)c1ccccc1C1CC1` [Compound 52, N-(2-cyclopropylbenzoyl)-O-(trans-3-(2-(5,6,7,8-tetrahydro-1,8-naphthyridin-2-yl)ethyl)cyclobutyl)homoserine], the IC50 was less than 50 nM.

As to `O=C(N[C@@H](CCO[C@H]1C[C@H](CCc2ccc3c(n2)NCCC3)C1)C(=O)O)c1ccc2cccnc2c1` [Compound 53, N-(quinoline-7-carbonyl)-O-(trans-3-(2-(5,6,7,8-tetrahydro-1,8-naphthyridin-2-yl)ethyl)cyclobutyl)homoserine], the IC50 was 50 to 250 nM.

Consider `O=C(N[C@@H](CCO[C@H]1C[C@H](CCc2ccc3c(n2)NCCC3)C1)C(=O)O)c1ccc2ncccc2c1` [Compound 54, N-(quinoline-6-carbonyl)-O-(trans-3-(2-(5,6,7,8-tetrahydro-1,8-naphthyridin-2-yl)ethyl)cyclobutyl)homoserine], for which the IC50 lay within 50 to 250 nM.

As for `O=C(N[C@@H](CCO[C@H]1C[C@H](CCc2ccc3c(n2)NCCC3)C1)C(=O)O)c1cccc2cccnc12` [Compound 55, N-(quinoline-8-carbonyl)-O-(trans-3-(2-(5,6,7,8-tetrahydro-1,8-naphthyridin-2-yl)ethyl)cyclobutyl)homoserine], the IC50 lay in the range of 250 to 1000 nM.

Regarding `O=C(N[C@@H](CCO[C@H]1C[C@H](CCc2ccc3c(n2)NCCC3)C1)C(=O)O)c1cccc(C2CC2)c1` [Compound 56, N-(3-cyclopropylbenzoyl)-O-(trans-3-(2-(5,6,7,8-tetrahydro-1,8-naphthyridin-2-yl)ethyl)cyclobutyl)homoserine], the IC50 is 50 to 250 nM.

As for `O=C(NC(CCO[C@H]1C[C@H](CCc2ccc3c(n2)NCCC3)C1)C(=O)O)c1ccc(C2CC2)cc1` (stereo partly drawn) [Compound 57, N-(4-cyclopropylbenzoyl)-O-(trans-3-(2-(5,6,7,8-tetrahydro-, 8-naphthyridin-2-yl)ethyl)cyclobutyl)homoserine], the IC50 was 250 to 1000 nM.

For the molecule `CCC(CC)CC(=O)N[C@H](CCO[C@H]1C[C@H](CCc2ccc3c(n2)NCCC3)C1)C(=O)O` [Compound 59, N-(3-ethylpentanoyl)-O-(trans-3-(2-(5,6,7,8-tetrahydro-1,8-naphthyridin-2-yl)ethyl)cyclobutyl)-D-homoserine], the IC50 was more than 1000 nM.

In the case of `O=C(NC(CCO[C@H]1C[C@H](CCc2ccc3c(n2)NCCC3)C1)C(=O)O)c1cccc(F)c1Cl` (stereo partly drawn) [Compound 60, N-(2-chloro-3-fluorobenzoyl)-O-(trans-3-(2-(5,6,7,8-tetrahydro-1,8-naphthyridin-2-yl)ethyl)cyclobutyl)homoserine], the IC50 lay in the range of 50 to 250 nM.

In the case of `CCC(CC)CC(=O)NC(CCO[C@H]1C[C@H](CCc2ccc3c(n2)NCCC3)C1)C(=O)O` (stereo partly drawn) [Compound 63, N-(3-ethylpentanoyl)-O-(trans-3-(2-(5,6,7,8-tetrahydro-1,8-naphthyridin-2-yl)ethyl)cyclobutyl)homoserine], the IC50 is less than 50 nM.

`O=C(NC(CCO[C@H]1C[C@H](CCc2ccc3c(n2)NCCC3)C1)C(=O)O)c1cccc(F)c1Cl` (stereo partly drawn) [Compound 64, N-(2-chloro-3-fluorobenzoyl)-O-(trans-3-(2-(5,6,7,8-tetrahydro-1,8-naphthyridin-2-yl)ethyl)cyclobutyl)homoserine]: the IC50 was less than 50 nM.

On to `O=C(N[C@@H](CCO[C@H]1C[C@@H](CCc2ccc3c(n2)NCCC3)C1)C(=O)O)c1ccc(F)c(F)c1` [Compound 66, N-(3,4-difluorobenzoyl)-O-(cis-3-(2-(5,6,7,8-tetrahydro-1,8-naphthyridin-2-yl)ethyl)cyclobutyl)homoserine], for which the IC50 fell in the range of 50 to 250 nM.

As for `CCC(CC)CC(=O)N[C@@H](CCO[C@H]1C[C@@H](CCc2ccc3c(n2)NCCC3)C1)C(=O)O` [Compound 67, N-(3-ethylpentanoyl)-O-(cis-3-(2-(5,6,7,8-tetrahydro-1,8-naphthyridin-2-yl)ethyl)cyclobutyl)homoserine], the half-inhibitory concentration (IC50) lay in the range of 50 to 250 nM.

Staying with this test, now noted: inhibition of binding of TGF-b1 LAP to human integrin αvβ6; values given in ranges; listed as 61*.
On to `O=C(NC(CCO[C@H]1C[C@H](CCc2ccc3c(n2)NCCC3)C1)C(=O)O)c1cccc(-c2cncs2)c1` (stereo partly drawn) [Compound 61, O-(trans-3-(2-(5,6,7,8-tetrahydro-1,8-naphthyridin-2-yl)ethyl)cyclobutyl)-N-(3-(thiazol-5-yl)benzoyl)homoserine], for which the 50% inhibitory concentration (IC50) is more than 1000 nM.

The same test, now with this note: inhibition of binding of TGF-b1 LAP to human integrin αvβ6; values given in ranges; listed as 65**.
Regarding `O=C(NC(CCO[C@H]1C[C@H](CCc2ccc3c(n2)NCCC3)C1)C(=O)O)c1cccc(-c2cncs2)c1` (stereo partly drawn) [Compound 65, O-(trans-3-(2-(5,6,7,8-tetrahydro-1,8-naphthyridin-2-yl)ethyl)cyclobutyl)-N-(3-(thiazol-5-yl)benzoyl)homoserine], the IC50 was less than 50 nM.
